# Test results: US5955100A, “Prodrugs their preparation and use as pharmaceuticals” (priority 1992, dated 1999)
# Experiments:
# [1] = Plasma half-life after i.v. injection, liposomal and free prodrug; format: in vivo, CD1 nu/nu mice
# [2] = Acute toxicity in nude mice (LD50, survival on day 14); conditions: mouse, in vivo, iv, nude mice (CD-1, nu/nu), 5 min infusion
# Method: To determine the acute toxicity, nude mice (CD-1, nu/nu) were infused on day 0 with various doses of the test substance dissolved in 0.5 ml of 5% glucose solution over a period of 5 minutes. Control groups receive merely 0.5 ml of 5% glucose solution. 5 mice are used per concentration of the test substance. The number of mice surviving on day 14 is determined, and the Litchfield Wilcoxon method is used to determine the LD50.
# [3] = test system: human colon tumors (LoVo); assay: Inhibition of growth of human colon tumors (LoVo) growing subcutaneously in the nude mouse; format: in vivo, human tumor in nude mouse; conditions: for T/C: 1 × i.v., d0
# Method: The tested human tumors are routinely maintained and passaged in nude mice. The tumors are tested for human characteristics by immunohistochemistry using monoclonal antibodies at each 3rd passage. The tumor is removed under sterile conditions and cut into small pieces of about 5-10 mm^3. One piece of tumor is implanted subcutaneously into the side of each nude mouse. After about 7-14 days, the piece of tumor is adherent to the surrounding tissue, and the tumor size A is determined with the aid of a calliper rule and measurement of two opposite diameters (a, b) by the following formula: […]
# After another measurement of the tumor size carried out at an interval of 3 days, the animals are randomized to the control group and to the groups to be treated (6 animals in each group). Only animals in which a progressive tumor growth was found are used for this. Starting with the day of randomization ([…]), the animals are treated with the test substances in accordance with the scheme indicated below. Twice a week the two tumor diameters are measured for each mouse, and the individual tumor areas are calculated in accordance with the abovementioried formula.
# After completion of the experiment, the relative tumor sizes for each individual animal on the particular measurement day are calculated by the formula: Ar =A(day X) /A(day 0). The median for the treated group (AT) is then related to the median for the relative control tumor size (AC), and T/C%=AT /AC […] is calculated. The statistical significance of the antitumor effect is determined with the aid of the Wilcoxon U test.
# [4] = test system: Salmonella typhimurium antigen (STA) induced foot swelling; assay: Delayed Type Hypersensitivity (DTH), 24 h foot swelling; format: in vivo, mouse
# From the text: c) DTH model in the mouse
# The effect of 14-O-[4-(beta-D-glucuronyloxy)-3nitrobenzylaminocarbonyl]doxorubicin (prodrug) on inflammation was investigated in a model of delayed type cutaneous reaction (Delayed Type Hypersensitivity, DTH) corresponding to the method described by Collins and Mackaness (J. Immunol. 101: 830-845,1968).
# In this model, mice were immunized with a defined amount of killed Salmonella typhimurium bacteria (109) twice at an interval of one week. Three. weeks after the first immunization a DTH reaction was provoked by intraplantar injection of a Salmonella typhimurium antigen (STA). A local inflammatory infiltrate which was composed of granulocytes, macrophages, lymphocytes and accumulated interstitial fluid developed. The extent of the reaction was measured by the increase in foot swelling 24 hours after provocation of the reaction. The effect of the prodrug on the inflammatory reaction was tested with two treatment schemes. One group received a single intravenous administration of 500 mg/kg prodrug 2 hours after the STA injection, and another group received three injections of, in each case, 300 mg/kg prodrug at times 2, 5 and 8 hours after the STA injection.
# [5] = test system: human tumor xenografts (ovarian, breast, stomach, lung and bowel carcinomas); assay: Prodrug activation/monotherapy in human tumor xenografts; format: in vivo, human tumor in nude mouse
# From the text: It was possible to show by means of a histochemical test (Murray et al., the journal of histochemistry and cytochemistry 37, 643-652, 1989) for determining. functional human β-glucuronidase that functionally active human .rho.-glucuronidase is present within the necrosis; i.e. cells whose cytoplasmic membrane has already been damaged still contain functionally active β-glucuronidase in the cytoplasm. This human β-glucuronidase which is localized in the necrosis and is not protected by the cytoplasmic membrane brings about the cleavage of the hydrophilic prodrug to the drug in the LoVo tumor.
# [6] = butyric acid liberated from prodrugs in vivo; cited from earlier work
# [7] = Baba et al., Gann 69, 1978; cited from earlier work
# mouse mammary carcinoma = conditions: ten i.v. administrations and glucose acidification; treatment started 24 h after implantation; cited from earlier work
# adjuvant arthritis = assay: Adjuvant arthritis in the rat; format: in vivo
# From the text: b) Adjuvant arthritis in the rat
# EAE = EAE model; format: in vivo
# From the text: Schorlemmer et al., Drugs Exptl. Clin. Res. XVII (10/11) 461-469 (1991)
smiles,measurement,setting,value
"COc1cccc2c1C(=O)c1c(O)c3c(c(O)c1C2=O)C[C@@](O)(C(=O)COC(=O)NCc1ccc(O[C@@H]2O[C@H](C(=O)O)[C@@H](O)[C@H](O)[C@H]2O)c([N+](=O)[O-])c1)C[C@@H]3O[C@H]1C[C@H](N)[C@H](O)[C@H](C)O1 [Compound 8, 14-O-[4-(Beta-D-glucuronyloxy)-3-nitrobenzylaminocarbonyl]doxorubicin]",half-life,"[1]; mouse, plasma, iv, free prodrug, CD1 nu/nu mice (data not shown)",~20 min
same,increase in plasma half-life after protein preincubation,[1]; preincubation with 50 g/l human serum albumin or human acid alpha-1 glycoprotein,less distinct increase in the plasma half-life
same,LD50 at 336 h,[2],> 1500 mg/kg
same,T/C,"[3]; 500 mg/kg, listed as Prodrug",40.0%
same,T/C,"[3]; 500 mg/kg, listed as prodrug",~ 40%
same,efficacy compared with fusion protein in combination with prodrug,"[3]; LoVo, prodrug alone",as effective as in the group which received fusion protein in combination with prodrug
same,statistical significance (p) of difference to doxorubicin treatment,"[3]; tumor growth, vs doxorubicin treatment",< 0.05
same,24 h foot swelling,"[4]; 300 mg/kg, 3 × i.v. (t = +2, +5, +8 h), marked xx",1.1 ± 1.3
same,24 h foot swelling,"[4]; 500 mg/kg, 1 × i.v. (t = +2 h), mean ± spread, marked x",3.5 ± 3.9
same,effect by comparison with standard therapy,[4]; DTH,superior effect
same,reduction in the inflammatory reaction,[4]; both prodrug treatment schemes,significant reduction in the inflammatory reaction
same,effect compared with ibuprofen,[4]; three administrations of prodrug (300 mg/kg),slightly superior to the standard therapy
same,effect of prodrug monotherapy on tumors without significant necrosis,[5]; non-necrotic tumors (data not shown),cannot be treated by prodrug monotherapy
same,endogenous activation by central necrosis,"[5]; ovarian, breast, stomach, lung and bowel carcinoma xenografts",confirmed in a large number of human tumor xenografts
CCCC(=O)O [butyric acid],therapeutic effects compared with cisplatin,[6],inferior to those of a standard cytostatic (cisplatin)
"COc1cccc2c1C(=O)c1c(O)c3c(c(O)c1C2=O)C[C@@](O)(C(=O)CO)C[C@@H]3O[C@H]1C[C@H](N)[C@H](O)[C@H](C)O1 [Doxorubicin, doxorubicin, reference compound]",T/C,[3]; 12 mg/kg,78.4%
same,T/C,"[3]; 12 mg/kg, listed as doxorubicin",~ 80%
"O=c1[nH]cc(F)c(=O)[nH]1 [Compound 5-FU, 5-fluorouracil]",LD50,[7],200 mg/kg
"CC(C)Cc1ccc(C(C)C(=O)O)cc1 (stereo not shown) [Ibuprofen, ibuprofen, reference compound]",24 h foot swelling,"[4]; 200 mg/kg, 1 × p.o. (t = 0), marked xx",1.7 ± 2.2
"O=C(O)[C@H]1O[C@@H](Oc2nc(=O)[nH]cc2F)[C@H](O)[C@@H](O)[C@@H]1O [FUOG, 5-fluorouracil O-.rho.-D-glucuronide]",effect on mouse mammary carcinoma,mouse mammary carcinoma,distinct effect
"CC(OC(=O)OCc1ccc(O[C@@H]2O[C@H](C(=O)O)[C@@H](O)[C@H](O)[C@H]2O)c([N+](=O)[O-])c1)=C(C#N)C(=O)Nc1ccc(C(F)(F)F)cc1 [Compound 22, 4-(β-D-Glucuronyloxy)-3-nitrobenzyl 2-[1-cyano-1-(N-4-trifluoromethylphenyl)carbamoyl]propen-1-yl carbonate]",activity by comparison with the active substance (Leflunomide),adjuvant arthritis,superior activity
same,activity by comparison with the active substance (Leflunomide),EAE,superior activity
